In one experiment the test system is mTOR. Nature of the experiment: Western blot, mTOR phosphorylation in 6-OHDA-treated SH-SY5Y cells. The format is cell-based, human. The conditions noted are these: peptide 1 and 10 µM, 24 h. As for the experimental part: The neuroblastoma SH-SY5Y cells were grown in a 6-well plate and when 80–90% confluent treated with 6-OHDA (100 µM) for 24 h. Then cells were stimulated with peptides for 2.5, 5, 7.5 and 10 min (for AKT) or 24 h (for mTOR). When needed, a 30 min pre-incubation step with LY 294002 was included before analogs and 6-OHDA addition. Stimulation was terminated by aspiration of the medium. Cells were washed 2 times with ice-cold PBS, and then 200 µL of ice-cold lysis buffer [150 mM NaCl, 20 mM Tris–HCl, glycerol, 5 mM EDTA, 0.5 mM phenylmethylsulphonylfluoride (PMSF), 10% Triton X-100, 100 mM protease inhibitors, pH 7.4] was added. Cells were incubated on ice for 15 min. Lysates were then centrifuged at 12,000×g for 10 min at 4 °C, and the supernatants were used as the total cell lysates. The protein content in the supernatants was quantified using the Bio-Rad protein assay kit. […] Following six washes with TBS-T, the protein bands were detected with the Clarity Western ECL reagent from Bio-Rad. The band intensity was quantified by NIH ImageJ densitometric analysis. For quantification, specific phosphorylation was calculated as the ratio of phosphorylated AKT or mTOR signals to the total Akt or mTOR signal detected. […]

Another experiment concerns AKT. Nature of the experiment: Western blot, AKT phosphorylation in 6-OHDA-treated SH-SY5Y cells. The format is cell-based, human. The conditions noted are these: for effect of peptide on AKT phosphorylation after LY 294002 pre-treatment: LY 294002 20 µM 30 min before peptide 10 µM and 6-OHDA 100 µM, 7.5 min (5), 2.5 min (7); for AKT phosphorylation / stimulation time for maximum effect on AKT phosphorylation: peptide 10 µM; for AKT phosphorylation: 2.5-10 min, 6-OHDA 100 µM treated cells; for stimulation time for maximum effect on AKT phosphorylation: 6-OHDA-treated cells, p-AKT (Ser473)/total AKT. As for the experimental part: The neuroblastoma SH-SY5Y cells were grown in a 6-well plate and when 80–90% confluent treated with 6-OHDA (100 µM) for 24 h. Then cells were stimulated with peptides for 2.5, 5, 7.5 and 10 min (for AKT) or 24 h (for mTOR). When needed, a 30 min pre-incubation step with LY 294002 was included before analogs and 6-OHDA addition. Stimulation was terminated by aspiration of the medium. Cells were washed 2 times with ice-cold PBS, and then 200 µL of ice-cold lysis buffer [150 mM NaCl, 20 mM Tris–HCl, glycerol, 5 mM EDTA, 0.5 mM phenylmethylsulphonylfluoride (PMSF), 10% Triton X-100, 100 mM protease inhibitors, pH 7.4] was added. Cells were incubated on ice for 15 min. Lysates were then centrifuged at 12,000×g for 10 min at 4 °C, and the supernatants were used as the total cell lysates. The protein content in the supernatants was quantified using the Bio-Rad protein assay kit. Equal amounts of protein were separated on 10% sodium dodecyl sulfate (SDS)-polyacrylamide gels and transferred to polyvinylidene difluoride membranes from (PVDF, Millipore, Cork, Ireland). Non-specific binding was blocked with tris-buffered saline Tween-20 (TBS-T: 150 mM NaCl, 20 mM Tris–HCl, 0.1% Tween 20, pH 7.5) containing 5% nonfat milk for 2 h at room temperature. Then, the membrane was incubated overnight at 4 °C with one of the following specific primary antibodies: Vinculin (1:1000 dilution; Cell Signalling Technology, Danvers, MA, USA), p-AKT (1:1000 dilution; Cell Signalling Technology, Danvers, MA, USA), AKT (1:1000 dilution; Cell Signalling Technology, Danvers, MA, USA), p-mTOR (1:1000 dilution; Cell Signalling Technology, Danvers, MA, USA), mTOR (1:1000 dilution; Cell Signalling Technology, Danvers, MA, USA). After incubation, membranes were washed six times per 5 min with TBS-T. In the next step, membranes were incubated with HRP-conjugated secondary antibodies (1:1000 dilution; Cell Signalling Technology, Danvers, MA, USA) for 1 h. Following six washes with TBS-T, the protein bands were detected with the Clarity Western ECL reagent from Bio-Rad. The band intensity was quantified by NIH ImageJ densitometric analysis. For quantification, specific phosphorylation was calculated as the ratio of phosphorylated AKT or mTOR signals to the total Akt or mTOR signal detected. Values of unstimulated samples were set to 1.0. The original immunoblots are provided in Supplementary data.

Experiment [1] in a line: Ferric reducing antioxidant power (FRAP). The settings on record: peptides 10 µM, 37 °C, 30 min, absorbance 593 nm; mean ± SEM. The protocol:
FRAP assay adapted to microscale with minor modifications was used to measure the ferric reducing ability of peptides. Acetate buffer (0.3 M, pH 3.6), 2,4,6-Tris(2-pyridyl)-s-triazine (TPTZ, 10 mM prepared in 40 mM HCl), and ferric solutions (20 mM) were freshly mixed at a ratio of 10:1:1 and place in a 96-well microplate. Then, 198 µL of FRAP reagent and 2 µL of the peptide sample was mixed and incubated at 37 °C in the dark for 30 min. The absorbance was measured at 593 nm using a microplate reader (Bioteck, Epoch/2 microplate reader, Winooski, VT, USA). The difference between the absorbance of the test sample and the blank reading was calculated and expressed as µM of FeSO4/g of the peptide. FeSO4 was used as standard.

Experiment [2] is described as follows: Oxygen radical absorption capacity (ORAC). The settings on record: peptides 10 µM, AAPH 12 mM, fluorescein; mean ± SEM. The protocol: The ability of peptides to neutralize the peroxyl radicals was evaluated in ORAC according to the described method. Peptides (20 µL) and fluorescein (120 µL; 70 nM) were placed in a microplate well and pre-incubated for 15 min at 37 °C. Then, 60 µL of 2,2ʹ-azobis (2-amidino-propane) dihydrochloride (AAPH) as a radical generator was added in a final concentration of 12 mM. The fluorescence was read at wavelengths of 458 nm (excitation) and 520 nm (emission) and recorded every minute for 240 min. A blank using phosphate buffer instead of […] and a calibration curve using Trolox as standard (1–8 µM, final concentration) were also carried on in each assay. Final results were presented in µmol of Trolox equivalents/ µM peptide (µmol TE/ µM peptide).

The subject of a further experiment is RAW 264.7 cells. The experiment in a line: Intracellular ROS generation in RAW 264.7 cells (not stimulated). The settings on record: 0.1-10 µM, 24 h, DCFH-DA, unstimulated cells. Type of experiment: cell-based, mouse. The protocol: The detection of ROS generated in injured cells was evaluated using the 5(6)-carboxy-2ʹ,7ʹ-dichlorofluorescein diacetate (carboxy-H2DCFDA) reagent (Invitrogen, Bleiswijk, Netherlands). After incubation, cells were washed with ice-cold Phosphate-Buffer Saline (PBS). Then, the carboxyl-H2DCFDA (100 µL, 20 µM) reagent was added and incubated for 1 h at 37 °C. Finally, the fluorescence intensity was measured at wavelengths of […], and ROS levels were presented in percentage of control (non-treated cells).

A further experiment deals with SH-SY5Y cells. Nature of the experiment: Mitochondrial membrane potential (JC-1) in 6-OHDA-treated SH-SY5Y cells. The format is cell-based, human. The settings on record: 6-OHDA 100 µM, 6 h. The protocol:
Mitochondrial function was assessed by monitoring changes in MMP (∆Ψm) using the fluorescent probe, JC-1 fluorescence dye (5,5′,6,6′-tetrachloro-1,1′,3,3′-tetraethyl-imidacarbocyanine iodide, Molecular Probes, T3168, Eugene, Oregon, USA). The assay was performed according to the method described by Silva et al.. Briefly, SH-SY5Y cells were exposed 6 h to 6-OHDA (100 μM) in the presence or absence of peptides. After incubation, cells were washed with ice-cold PBS, and then JC-1 reagent (3 µM, 200 µL) was added for 15 min at 37 °C. Afterwards, JC-1 was removed, and cells were washed with PBS. The formation of JC-1 aggregates (490 nm of excitation and 590 nm of emission) and the monomeric form of JC-1 (490 nm of excitation and 530 nm of emission) was accompanied simultaneously in the plate reader for 30 min. Results were expressed as the ratio of the monomers/aggregates of JC-1 in the percentage of control.

From paper PMC10901950, “Neuroprotective and Anti-inflammatory Effects of Rubiscolin-6 Analogs with Proline Surrogates in Position 2” (Neurochemical Research, 2023) come the findings set out here.

Square brackets hold non-standard residues; d marks the D form. Ends that are not written are not given here. Peptide text beside a SMILES is read from it. Dmt = Cc1cc(O)cc(C)c1C[C@H](N)C(=O)O; Inp = O=C(O)C1CCNCC1

Turning to `CC(C)C[C@H](NC(=O)C1CCN(C(=O)[C@@H](N)Cc2ccc(O)cc2)CC1)C(=O)N[C@@H](CC(=O)O)C(=O)N[C@@H](CC(C)C)C(=O)N[C@@H](Cc1ccccc1)C(N)=O` [analog 7, Tyr-Inp-Leu-Asp-Leu-Phe-NH2] (H-Y[Inp]LDLF-NH2), in the experiment on mTOR, the “phosphorylated mTOR compared with the 6-OHDA-injured group” value is reported as “significant increase”. In the experiment with AKT, the “effect of peptide on AKT phosphorylation after LY 294002 pre-treatment” value is “significantly blocked”, the AKT phosphorylation entry was “transiently stimulated” and the “stimulation time for maximum effect on AKT phosphorylation” value (shortened to “stimulation time for maximum effect”) was found to be 2.5 min.
As for “YPLDLF-NH2 [analog 6, Tyr-Pro-Leu-Asp-Leu-Phe-NH2]”, the “FRAP, ability to reduce iron ions” value in experiment [1] is on record as 0.87 ± 0.22 µM Eq. FeSO4/g of peptide. Further, the “ORAC, ability to neutralize the peroxyl radicals” value in experiment [2] is 3143 ± 164.4 µmol Eq. Trolox/g of peptide.
On to `Cc1cc(O)cc(C)c1C[C@H](N)C(=O)N1CCC(C(=O)N[C@@H](CC(C)C)C(=O)N[C@@H](CC(=O)O)C(=O)N[C@@H](CC(C)C)C(=O)N[C@@H](Cc2ccccc2)C(=O)O)CC1` [analog 5, Dmt-Inp-Leu-Asp-Leu-Phe-OH] (H-[Dmt][Inp]LDLF-OH), for which, in the experiment with mTOR, the “phosphorylated mTOR compared with the 6-OHDA-injured group” value is given as “significant increase”. Moreover, in the experiment with AKT, the “effect of peptide on AKT phosphorylation after LY 294002 pre-treatment” value is recorded as “significantly blocked”, the AKT phosphorylation entry is on record as “transiently stimulated” and the “stimulation time for maximum effect” value is listed as 7.5 min.
For the molecule YPLDLF [R-6, rubiscolin-6], in experiment [1], the “FRAP, ability to reduce iron ions” value is reported as 1.09 ± 0.20 µM Eq. FeSO4/g of peptide. In addition, the “ORAC, ability to neutralize the peroxyl radicals” value in experiment [2] is listed as 2789 ± 131.6 µmol Eq. Trolox/g of peptide. Also, the “effect on intracellular ROS levels” value with RAW 264.7 cells is recorded as “did not affect”. Besides, the “effect on MMP changes caused by the neurotoxin” value with SH-SY5Y cells (peptide 0.1-10 µM) is “markedly decreased”.
`Cc1cc(O)cc(C)c1C[C@H](N)C(=O)N1CCC[C@H]1C(=O)N[C@@H](CC(C)C)C(=O)N[C@@H](CC(=O)O)C(=O)N[C@@H](CC(C)C)C(=O)N[C@@H](Cc1ccccc1)C(=O)O` [analog 1, Dmt-Pro-Leu-Asp-Leu-Phe-OH] (H-[Dmt]PLDLF-OH): in the experiment on SH-SY5Y cells (peptide 10 µM), the “effect on MMP depolarization” value is “couldn’t decrease”.
For the molecule `CC(C)C[C@H](NC(=O)C1CCN(C(=O)[C@@H](N)Cc2ccc(O)cc2)CC1)C(=O)N[C@@H](CC(=O)O)C(=O)N[C@@H](CC(C)C)C(=O)N[C@@H](Cc1ccccc1)C(=O)O` [analog 3, Tyr-Inp-Leu-Asp-Leu-Phe-OH] (H-Y[Inp]LDLF-OH), in the experiment with AKT, the AKT phosphorylation entry is “transiently stimulated” and the “stimulation time for maximum effect” value was 7.5 min.
